Data published in patent US8772199B2, “Herbicidal compositions for tolerant or resistant maize crops” (Bayer Intellectual Property GmbH, priority 1998, dated 2014).

Columns and labels:
Type in all cases: in vivo
[1] = tested on: Avena fatua; assay: Field trial with maize, herbicidal action; conditions: application 2- to 4-leaf stage, scoring 28 days after application
Protocol: (§1) Transgenic maize plants with a resistance to one or more herbicides (A) together with typical weed plants were grown in the open on 2×5 m plots under natural field conditions; alternatively, weed infestation occurred naturally when the maize plants were grown.
(§2) 2, 4, 6 and 8 weeks after the application, the herbicidal activity of the active substances or active substance mixtures was scored visually with reference to the treated plots in comparison to untreated control plots. The damage to, and the development of, all aerial parts of the plants was recorded. Scoring was done on the basis of a percentage sale (100% action=all plants destroyed; 50% action=50% of the plants and green parts of the plants destroyed; 0% action=no recognizable effect=like control plot. The mean of the score values of in each case 4 plots was calculated.

[2] = tested on: Portulaca oleracea; assay: Field trial with maize, herbicidal action
Protocol: as §1
(§3) […] The damage to, and the development of, all aerial parts of the plants was recorded. Scoring was done on the basis of a percentage sale (100% action=all plants destroyed; 50% action=50% of the plants and green parts of the plants destroyed; 0% action=no recognizable effect=like control plot. The mean of the score values of in each case 4 plots was calculated.

[3] = tested on: Cassia obtusifolia; assay: Field trial with maize, herbicidal action; conditions: 925 g of a.s./ha; application 3-leaf stage; scoring 21 days after application
Protocol: as §1, §3

[4] = tested on: Lamium amplexicaule; assay: Field trial with maize, herbicidal action; conditions: application 1-leaf stage, scoring 17 days after application
Protocol: as §1, §3

[5] = tested on: Fagopyrum esculentum; assay: Field trial with maize, herbicidal action; conditions: 2.5 g of a.s./ha; application 2- to 4-leaf stage; scoring 26 days after application
Protocol: as §1, §3

[6] = tested on: Lolium multiflorum; assay: Field trial with maize, herbicidal action; conditions: 2.5 g of a.s./ha; application 2- to 4-leaf stage; scoring 26 days after application
Protocol: as §1, §3

[7] = tested on: Sorghum halepense; assay: Field trial with maize, herbicidal action; conditions: application 4-leaf stage, scoring 28 days after application
Protocol: as §1, §2

[8] = tested on: Sinapis arvensis; assay: Field trial with maize, herbicidal action; conditions: 15 g of a.s./ha; application 4- to 5-leaf stage; scoring 28 days after application
Protocol: as §1, §2

[9] = tested on: Brachiaria plantaginea; assay: Field trial with maize, herbicidal action; conditions: 1500 g of a.s./ha; application 2-leaf stage; scoring 28 days after application
Protocol: as §1, §2

[10] = tested on: Convolvulus arvensis; assay: Field trial with maize, herbicidal action; conditions: 500 g of a.s./ha; application 3- to 4-leaf stage; scoring 28 days after application
Protocol: as §1, §2

[11] = tested on: Mais LL (Liberty-Link-Mais, maize tolerant or resistant to glufosinate-ammonium); assay: Field trial, damage to transgenic maize (tolerance by crop plants); conditions: in vivo
Protocol: as §1
The damage to, and the development of, all aerial parts of the plants was recorded.
Abbreviations generally used in the tables: • g of a.s./ha=gram of active substance (100% active substance) per hectare • E^A=Total of the herbicidal effects of the individual applications • E^C Colby's expected value (cf. scoring in Table 1) • “Mais LL”=®Liberty-Link-Mais, maize which is tolerant or resistant to glufosinate-ammonium, […]

[12] = tested on: Digitaria sanguinalis; assay: Field trial with maize, herbicidal action; conditions: 300 g of a.s./ha; application 5-6-leaf stage; scoring 11 days after application
Protocol: as §1, §3

[13] = tested on: Panicum dichotomiflorum; assay: Field trial with maize, herbicidal action; conditions: 300 g of a.s./ha; application 5-6-leaf stage; scoring 11 days after application
Protocol: as §1, §3

N#Cc1cc(Br)c(O)c(Br)c1 [(B3.1), 3,5-dibromo-4-hydroxybenzonitrile]
Herbicidal action (%) against Avena fatua ([1]; 360 g of a.s./ha): 10%
Herbicidal action (%) against Portulaca oleracea ([2]; 360 g of a.s./ha, application 2- to 4-leaf stage, scoring 28 days after application): 25%
Herbicidal action (%) against Portulaca oleracea ([2]; 360 g of a.s./ha, application 6-leaf stage, scoring 26 days after application): 25%

CCC(CC)Nc1c([N+](=O)[O-])cc(C)c(C)c1[N+](=O)[O-] [(B2.1), N-(1-ethylpropyl)-2,6-dinitro-3,4-xylidine]
Herbicidal action (%) against Cassia obtusifolia [3]: 0%

COc1nc(C)nc(NC(=O)NS(=O)(=O)c2cc(I)ccc2C(=O)O)n1 [(B2.3), 4-iodo-2-(4-methoxy-6-methyl-1,3,5-triazin-2-ylcarbamoylsulfamoyl)benzoic acid]
Herbicidal action (%) against Lamium amplexicaule ([4]; 2.5 g of a.s./ha): 55%
Herbicidal action (%) against Fagopyron esculentum [5]: 85%
Herbicidal action (%) against Lolium multiflorum [6]: 84%

O=C(Nc1nc(OC(F)F)cc(OC(F)F)n1)NS(=O)(=O)c1ccccc1C(=O)O [(B1.11), 2-[4,6-bis(difluoromethoxy)pyrimidin-2-ylcarbamoylsulfamoyl]benzoic acid]
Herbicidal action (%) against Sorghum halepense ([7]; 10 g of a.s./ha): 62%
Herbicidal action (%) against Sorghum halepense ([7]; 20 g of a.s./ha): 93%

COc1nc(C)nc(NC(=O)NS(=O)(=O)c2ccsc2C(=O)O)n1 [(B3.6), 3-[[[[(4-methoxy-6-methyl-1,3,5-triazin-2-yl)amino]carbonyl]amino]sulfonyl]-2-thiophenecarboxylic acid]
Herbicidal action (%) against Sinapis arvensis [8]: 73%

CCc1cccc(C)c1N(C(=O)CCl)C(C)COC (stereo not drawn) [(B1.5), 2-chloro-N-(2-ethyl-6-methylphenyl)-N-(2-methoxy-1-methylethyl)-acetamide]
Herbicidal action (%) against Brachiaria plantaginea [9]: 70%
Herbicidal action (%) against Avena fatua ([1]; 1680 g of a.s./ha): 40%
Herbicidal action (%) against Portulaca oleracea ([2]; 1680 g of a.s./ha, application 2- to 4-leaf stage, scoring 28 days after application): 35%

O=C(O)CNCP(=O)(O)O [(A2.1), N-(phosphonomethyl)glycine]
Herbicidal action (%) against Lamium amplexicaule ([4]; 400 g of a.s./ha): 75%
Herbicidal action (%) against Lamium amplexicaule ([4]; 600 g of a.s./ha): 90%

Cc1cc(Cl)ccc1OCC(=O)O [(B3.9), (4-chloro-2-methylphenoxy)acetic acid]
Herbicidal action (%) against Convolvulus arvensis [10]: 60%

CCNc1nc(Cl)nc(NC(C)(C)C#N)n1 [(B1.1), 2-(4-chloro-6-ethylamino-1,3,5-triazin-2-ylamino)-2-methylpropionitrile]
Herbicidal action (%) against Avena fatua ([1]; 2242 g of a.s./ha): 35%
Herbicidal action (%) against Portulaca oleracea ([2]; 2242 g of a.s./ha, application 2- to 4-leaf stage, scoring 28 days after application): 45%

COc1c(Cl)ccc(Cl)c1C(=O)O [(B3.2), 3,6-dichloro-o-anisic acid]
Damage to Mais LL in % [11]: 0%
Herbicidal action (%) against Digitaria sanguinalis [12]: 88%
Herbicidal action (%) against Panicum dichotomiflorum [13]: 0%
